The conditions of data set [1]: cited from earlier work.
A further data set deals with experimental animals. The conditions noted are these: lethal dose of argothroban after clinical testing; cited from earlier work.
The target of data set [2] is T1, thrombin (Homo sapiens, UniProt P00734). The following applies: literature, PDB complex; cited from earlier work.
Data set [3] concerns the target T1, thrombin. The experiment in a line: Effect of test compounds on thrombin activity: hydrolysis rate of chromogenic (Chromozim TH) or fluorogenic (BOC-Ala-Pro-Arg-AMC) substrate. It counts as biochemical. The following applies: for inhibition at 0.1 µM: concentration of compound 100 nM; for inhibition at 0.2 µM: concentration of compound 200 nM; for inhibition at 0.02 µM: concentration of compound 20 nM; for inhibition at 0.05 µM: concentration of compound 50 nM; for inhibition at 0.005 µM: concentration of compound 5 nM; for inhibition at 0.025 µM: concentration of compound 25 nM; for inhibition at 0.25 µM: concentration of compound 250 nM. The source says: The effect of the synthesized substances on thrombin activity was studied by measuring the hydrolysis rate of specific low molecular weight substrates with thrombin in an aqueous buffering solution in the absence and presence of these compounds. One of these substrates was chromogenic substrate Chromozim TH (CTH): N-(p-Tosyl)-Gly-Pro-Arg-pNA [Sonder S A, Fenton J W 2nd. Thrombin Specificity with Tripeptide Chromogenic Substrates: Comparison of Human and Bovine Thrombins with and without Fibrinogen Clotting Activities. Clin. Chem., 1986, 32(6):934-937]. Another substrate that was used in a number of experiments was fluorogenic substrate BOC-Ala-Pro-Arg-AMC (S), wherein BOC is butoxycarbonyl residue, and AMC is 7-amino-4-methylcoumaryl [Kawabata S, Miura T, Morita T, Kato H, Fujikawa K, Ivanaga S, Takada K, Kimura T, Sakakibara S. Highly Sensitive peptide-4-methylcoumaryl-7-amide Substrates for Blood-Clotting Proteases and Trypsin. Eur. J. Biochem., 1988, 172(1):17-25].
The holes of a common 96-hole board were filled with a buffer containing 140 mM of NaCl, 20 mM of HEPES, and 0.1% polyethylene glycol (Mw=6,000), at pH=8.0. […] When a chromogenic substrate was used, accumulation of the colored reaction product—para-nitroaniline—was followed on a spectrophotometric Molecular Devices board reader (Thermomax, U.S.), measuring the increase in optical density on the 405 nm wavelength. […] The reaction kinetics was registered on a fluorometric Titertek Fluoroskan board reader (LabSystem, Finland).
The initial reaction rate was measured as the tangent of the kinetic curve inclination angle on a straight section (first 10 to 15 minutes of registration). Reaction rate without an inhibitor was a ssumed to be 100%. The mean arithmetic value of two independent measurements was used as the end result.

[4] abbreviates: concentration of compound 0.5 mcM.
Setting [5] is: concentration of compound 2 mcM.
Setting [6] is: concentration of compound 5 mcM.
Setting [7] is: concentration of compound 20 mcM.
The mark [8] stands for this setting: concentration of compound 50 mcM.
Where [9] appears, read: concentration of compound 100 mcM.
Setting [10] is: concentration of compound 10 mcM.
[11] abbreviates: concentration of compound 2.5 mcM.
Setting [12] is: concentration of compound 1 mcM.

Molecules are shown by their SMILES. pKd: −log10 of the molar value.

What is called LD50 is the dose at which mortality reaches 50%. Turning to `CC1CNc2c(cccc2S(=O)(=O)N[C@@H](CCCNC(=N)N)C(=O)N2CC[C@@H](C)C[C@@H]2C(=O)O)C1` (stereo partly shown) [Argatroban], the T1/2 in plasma in data set [1] is 36 min. The median lethal dose (LD50) in the data set with experimental animals is listed as 475 mg/kg.

By pKd is commonly meant −log10 of the Kd, conventionally taken in molar units. In the case of `N=c1ccc2cc3ccc(N)cc3[nH]c-2c1` [Proflavin], the pKd at thrombin [2] was about 5.00.

For orientation: inhibition means how much of the control response was suppressed. Take `Cc1cc(OCCCn2ccsc2=N)cc(OS(=O)(=O)c2ccccc2)c1`: the inhibition at 0.1 µM against thrombin [3] amounted to 5%. At thrombin [3], this molecule showed an inhibition at 0.2 µM of 10%. Further, the “Hydrolysis rate inhibition, %” value is on record as 23% at thrombin [3] (setting [4]); 57% on thrombin [3] (setting [5]); 73% at thrombin [3] (setting [6]); 95% at thrombin [3] (setting [7]); 95% on thrombin [3] (setting [8]); 96% on thrombin [3] (setting [9]). The “Hydrolysis rate inhibition, %” value on thrombin [3] (concentration of compound 200 mcM) came to 97%.

As to `Cc1cc(OCCC[n+]2ccsc2N)cc(OS(=O)(=O)c2ccccc2F)c1.[I-]` [HC_030s_IOC], the inhibition at 0.02 µM against thrombin [3] amounted to 5%. For the same molecule, on thrombin [3], the inhibition at 0.05 µM came to 18%. Further, the “Hydrolysis rate inhibition, %” value is 72% on thrombin [3] (setting [5]), 88% on thrombin [3] (setting [6]) and 93% on thrombin [3] (setting [10]).

Regarding `Cc1cc(OCCSC(=N)N)cc(OS(=O)(=O)c2ccccc2)c1.I` [HC-020s-IOC, 2-(3-methyl-5-(benzenesulfonyloxy)phenoxy)ethyl-isothioronium iodide], on thrombin [3], 0.005 µM produced 54% inhibition, the inhibition at 0.025 µM worked out at 59%, testing at 0.05 µM gave an inhibition of 68% and at 0.25 µM the inhibition was 94%. Moreover, at thrombin [3] (concentration of compound 12.5 nM), testing at 0.0125 µM gave an inhibition of 46%. The molecule further displayed an inhibition at 0.125 µM against thrombin [3] (concentration of compound 125 nM) of 81%. For the same molecule, on thrombin [3] (concentration of compound 500 nM), the inhibition at 0.5 µM was 96%. The “Hydrolysis rate inhibition, %” value on thrombin [3] (concentration of compound 1.25 mcM) is reported as 98%. Besides, the “Hydrolysis rate inhibition, %” value on thrombin [3] (setting [11]) stood at 99%. At thrombin [3] (setting [6]), the “Hydrolysis rate inhibition, %” value is recorded as 99%.

On to `Cc1cc(OCCC[n+]2ccc(N)cc2)cc(OS(=O)(=O)c2ccccc2F)c1.[I-]` [HC_029s_IOC], for which the inhibition at 0.05 µM at thrombin [3] turned out to be 8%. Moreover, 0.1 µM produced 14% inhibition at thrombin [3]. The same molecule had an inhibition at 0.25 µM on thrombin [3] of 16%. The “Hydrolysis rate inhibition, %” value at thrombin [3] (setting [4]) amounted to 25%; on thrombin [3] (setting [12]), 54%; at thrombin [3] (setting [11]) it was 75%; on thrombin [3] (setting [6]) it was 81%.

In turn, `Cc1cc(OCC[n+]2ccc(N)cc2)cc(OS(=O)(=O)c2ccccc2S(C)(=O)=O)c1` [HC_036s_IOC] showed an inhibition at 0.0025 µM against thrombin [3] (concentration of compound 2.5 nM) of 29%. On thrombin [3], this molecule gave an inhibition at 0.005 µM of 28%, an inhibition at 0.025 µM of 79% and an inhibition at 0.05 µM of 88%. In addition, the “Hydrolysis rate inhibition, %” value on thrombin [3] (setting [11]) stood at 96%.

The molecule `Cc1cc(OCCCSC(=N)N)cc(OS(=O)(=O)c2ccccc2)c1.I` [HC-018s-IOC, 3-(3-methyl-5-(benzenesulfonyloxy)phenoxy)propyl-isothiouronium iodide] gave an inhibition at 0.02 µM against thrombin [3] of 16%. For the same molecule, the inhibition at 0.04 µM on thrombin [3] (concentration of compound 40 nM) worked out at 33%. In addition, 0.1 µM produced 49% inhibition against thrombin [3]. In addition, the inhibition at 0.2 µM against thrombin [3] worked out at 64%. Further, the “Hydrolysis rate inhibition, %” value is given as 93% on thrombin [3] (setting [4]); 98% on thrombin [3] (setting [12]); 100% at thrombin [3] (setting [5]); 100% on thrombin [3] (setting [6]); 100% on thrombin [3] (setting [10]); 100% on thrombin [3] (setting [7]). The “Hydrolysis rate inhibition, %” value at thrombin [3] (setting [8]) and on thrombin [3] (setting [9]) was 100% in each case.

For the molecule `Nc1cc[n+](CCOc2cccc(NS(=O)(=O)c3ccccc3)c2)cc1` [HC_041s_IOC], the “Hydrolysis rate inhibition, %” value on thrombin [3] (concentration of compound 0.1 mcM) came out at 56%; on thrombin [3] (concentration of compound 0.25 mcM), 62%; on thrombin [3] (setting [4]), 75%; on thrombin [3] (concentration of compound 1.75 mcM) it was 88%; on thrombin [3] (concentration of compound 3.75 mcM), 90%; at thrombin [3] (concentration of compound 25 mcM) it was 95%. In addition, the “Hydrolysis rate inhibition, %” value at thrombin [3] (concentration of compound 250 mcM) was determined as 99%.

The values are drawn from US20100324058A1 (Obschestvo S Organichennoi Otvetsttvennoctiyou "Bionika", priority 2007, published 2010).
